Results from US8580784B2, “Method for treating a disease related to the glucocorticoid receptor” (Santen Pharmaceutical Co., Ltd., priority 2006, dated 2013).

The compounds below were run against T1, Recombinant human GR (Homo sapiens, UniProt P04150) (assay: Evaluation test for binding activity to glucocorticoid receptor: receptor competitor assay by fluorescence polarization (Invitrogen GR competitor assay kit, cat No. P2816)). Conditions: 20 μM test compound solution, 10 μL per well plus 5 μL 4×GS1 and 5 μL 4×GR solution; room temperature 2 to 4 hours; a ratio of 100% or more is indicated by 100%.
T1 construct: purchased Invitrogen P2816
T1 sequence (P04150 1-777): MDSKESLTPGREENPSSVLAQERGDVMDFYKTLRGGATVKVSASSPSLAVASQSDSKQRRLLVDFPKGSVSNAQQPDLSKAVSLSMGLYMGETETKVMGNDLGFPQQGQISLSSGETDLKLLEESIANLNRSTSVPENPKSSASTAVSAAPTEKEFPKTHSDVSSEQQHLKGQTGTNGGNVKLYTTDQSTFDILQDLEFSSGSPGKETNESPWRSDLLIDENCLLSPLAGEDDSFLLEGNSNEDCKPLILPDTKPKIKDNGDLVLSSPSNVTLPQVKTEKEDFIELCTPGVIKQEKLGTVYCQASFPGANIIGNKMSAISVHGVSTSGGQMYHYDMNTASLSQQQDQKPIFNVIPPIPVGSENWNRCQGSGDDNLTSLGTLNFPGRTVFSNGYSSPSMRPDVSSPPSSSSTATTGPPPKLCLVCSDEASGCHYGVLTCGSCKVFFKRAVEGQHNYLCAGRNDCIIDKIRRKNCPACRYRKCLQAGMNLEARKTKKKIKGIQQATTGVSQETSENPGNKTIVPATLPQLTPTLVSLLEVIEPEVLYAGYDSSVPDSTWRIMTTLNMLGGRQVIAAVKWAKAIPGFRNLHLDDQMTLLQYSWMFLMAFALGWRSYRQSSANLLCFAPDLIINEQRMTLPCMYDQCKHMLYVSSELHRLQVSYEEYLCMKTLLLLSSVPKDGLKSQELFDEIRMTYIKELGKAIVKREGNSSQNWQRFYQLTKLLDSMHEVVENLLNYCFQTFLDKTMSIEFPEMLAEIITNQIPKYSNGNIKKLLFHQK
Protocol: A detailed explanation of this matter will be described in the section of “Pharmacological Test” in Examples described below. In order to find the usefulness of the present compound as a pharmaceutical, a glucocorticoid receptor competitor assay was carried out by a fluorescence polarization method by using a glucocorticoid receptor competitor assay kit (manufactured by Invitrogen, cat No. P2816) to study the glucocorticoid receptor binding activity of the present compound.
1. Evaluation Test for Binding Activity to Glucocorticoid Receptor (hereinafter referred to as “GR”)
In order to evaluate a binding activity to GR, a receptor competitor assay was carried out by a fluorescence polarization method. In the assay, a GR competitor assay kit (manufactured by Invitrogen, cat No. P2816) was used, and a procedure was carried out according to the protocol attached to the kit. Hereinafter, the specific method will be described.
(Preparation of Reagents)
GR screening buffer: A buffer containing 10 mM potassium phosphate (pH 7.4), 20 mM sodium molybdate (Na2MoO4), 0.1 mM ethylene diamine tetraacetic acid (EDTA), 5 mM dithiothreitol (DTT), 0.1 mM stabilizing peptide and 2% dimethylsulfoxide was prepared.
4×GS1 solution: Fluormone™ GS1, which is a fluorescent glucocorticoid ligand, was diluted with GR screening buffer, whereby a 4 nM solution was prepared.
4×GR solution: Recombinant human GR was diluted with GR screening buffer, whereby a 16 nM solution was prepared.
(Preparation of Test Compound Solution)
After a test compound was dissolved in dimethylsulfoxide, the resulting solution was diluted with GR screening buffer, whereby a 20 μM test compound solution was prepared.
(Test Method and Measurement Method)
1) The test compound solution was added in an amount of 10 μL into each well of a 384-well plate, and then, 4×GS1 solution and 4×GR solution were added in an amount of 5 μL into each well, respectively.
2) The plate was incubated in a dark place at room temperature for 2 to 4 hours.
3) By using a multimode plate reader, Analyst™ HT (manufactured by LJL Biosystems), fluorescence polarization of each well was measured. As the blank, a well containing GR screening buffer in place of the test compound and 4×GS1 solution was used.
4) The same procedure as that in the above 1) to 3) was carried out except that GR screening buffer was used in place of the test compound solution, and the obtained result was taken as the negative control.
5) The same procedure as that in the above 1) to 3) was carried out except that 2 mM dexamethasone was used in place of the test compound solution, and the obtained result was taken as the positive control.
(Calculation Equation of GR Binding Ratio)
A GR binding ratio (%) was calculated from the following equation. GR binding ratio(%)=100×[1−(fluorescence polarization of test compound solution−fluorescence polarization of positive control solution)/(fluorescence polarization of negative control solution−fluorescence polarization of positive control solution)] (Test Results and Discussion)

SMILES | inhibition at 20 µM (stock) [%] | inhibition at 20 µM [%]
COc1ccccc1NCc1c(-c2ccc(OC(=O)c3ccoc3)cc2OC)ccc2c1C(C)=CC(C)(C)N2 [Compound 1-6, 6-[4-(Furan-3-ylcarbonyloxy)-2-methoxyphenyl]-5-(2-methoxyphenylaminomethyl)-2,2,4-trimethyl-1,2-dihydroquinoline] | 97 | –
COc1ccccc1NCc1c(-c2ccc(OC(=O)c3ccsc3)cc2OC)ccc2c1C(C)=CC(C)(C)N2 [Compound 1-7, 5-(2-Methoxyphenylaminomethyl)-6-[2-methoxy-4-(thiophen-3-ylcarbonyloxy)phenyl]-2,2,4-trimethyl-1,2-dihydroquinoline] | 95 | –
COc1ccccc1NCc1c(-c2ccc(OC(=O)c3cccnc3)cc2OC)ccc2c1C(C)=CC(C)(C)N2 [Compound 1-8, 5-(2-Methoxyphenylaminomethyl)-6-[2-methoxy-4-(pyridin-3-ylcarbonyloxy)phenyl]-2,2,4-trimethyl-1,2-dihydroquinoline] | – | 98
COc1cc(OC(=O)c2ccccc2Cl)ccc1-c1ccc2c(c1CNc1cc(F)ccc1C)C(C)=CC(C)(C)N2 [Compound 1-9, 6-[4-(2-Chlorobenzoyloxy)-2-methoxyphenyl]-5-(5-fluoro-2-methylphenylaminomethyl)-2,2,4-trimethyl-1,2-dihydroquinoline] | 90 | –
COc1ccccc1NCc1c(-c2ccc(OC(=O)c3ccncc3)cc2OC)ccc2c1C(C)=CC(C)(C)N2 [Compound 1-13, 5-(2-Methoxyphenylaminomethyl)-6-[2-methoxy-4-(pyridin-4-ylcarbonyloxy)phenyl]-2,2,4-trimethyl-1,2-dihydroquinoline] | 100 | –
COc1ccccc1NCc1c(-c2ccc(OC(=O)C(C)C)cc2OC)ccc2c1C(C)=CC(C)(C)N2 [Compound 1-14, 6-(4-Isopropylcarbonyloxy-2-methoxyphenyl)-5-(2-methoxyphenylaminomethyl)-2,2,4-trimethyl-1,2-dihydroquinoline] | 99 | –
COc1ccccc1NCc1c(-c2ccc(OC(=O)c3cccs3)cc2OC)ccc2c1C(C)=CC(C)(C)N2 [Compound 1-15, 5-(2-Methoxyphenylaminomethyl)-6-[2-methoxy-4-(thiophen-2-ylcarbonyloxy)phenyl]-2,2,4-trimethyl-1,2-dihydroquinoline] | 99 | –
COc1cc(OC(=O)c2cccnc2)ccc1-c1ccc2c(c1CNc1cc(F)ccc1C)C(C)=CC(C)(C)N2 [Compound 1-16, 5-(5-Fluoro-2-methylphenylaminomethyl)-6-[2-methoxy-4-(pyridin-3-ylcarbonyloxy)phenyl]-2,2,4-trimethyl-1,2-dihydroquinoline] | 100 | –
COc1cc(OC(=O)c2ccco2)ccc1-c1ccc2c(c1CNc1cc(F)ccc1C)C(C)=CC(C)(C)N2 [Compound 1-17, 5-(5-Fluoro-2-methylphenylaminomethyl)-6-[4-(furan-2-ylcarbonyloxy)-2-methoxyphenyl]-2,2,4-trimethyl-1,2-dihydroquinoline] | 99 | –
COC(=O)c1cccc(C(=O)Oc2ccc(-c3ccc4c(c3CNc3ccccc3OC)C(C)=CC(C)(C)N4)c(OC)c2)c1 [Compound 1-18, 6-[2-Methoxy-4-(3-methoxycarbonylbenzoyloxy)phenyl]-5-(2-methoxyphenylaminomethyl)-2,2,4-trimethyl-1,2-dihydroquinoline] | 86 | –
COc1ccc(C(=O)Oc2ccc(-c3ccc4c(c3CNc3ccccc3OC)C(C)=CC(C)(C)N4)c(OC)c2)cc1 [Compound 1-22, 6-[2-Methoxy-4-(4-methoxybenzoyloxy)phenyl]-5-(2-methoxyphenylaminomethyl)-2,2,4-trimethyl-1,2-dihydroquinoline] | 81 | –
COc1ccccc1NCc1c(-c2ccc(OC(=O)c3cccc(C(C)=O)c3)cc2OC)ccc2c1C(C)=CC(C)(C)N2 [Compound 1-27, 6-[4-(3-Acetylbenzoyloxy)-2-methoxyphenyl]-5-(2-methoxyphenylaminomethyl)-2,2,4-trimethyl-1,2-dihydroquinoline] | 87 | –

Now from value to compound:

inhibition at 20 µM (stock) [%] | inhibition at 20 µM [%] | SMILES
92 | – | COc1ccccc1NCc1c(-c2ccc(OC(=O)c3ccco3)cc2OC)ccc2c1C(C)=CC(C)(C)N2 [Compound 1-1, 6-[4-(Furan-2-ylcarbonyloxy)-2-methoxyphenyl]-5-(2-methoxyphenylaminomethyl)-2,2,4-trimethyl-1,2-dihydroquioline]
100 | – | COc1ccccc1NCc1c(-c2ccc(OC(=O)c3cccnc3C)cc2OC)ccc2c1C(C)=CC(C)(C)N2 [Compound 1-2, 6-[2-Methoxy-4-(2-methylpyridin-3-ylcarbonyloxy)phenyl]-5-(2-methoxyphenylaminomethyl)-2,2,4-trimethyl-1,2-dihydroquioline]
95 | – | COc1ccccc1NCc1c(-c2ccc(OC(=O)c3ccccc3)cc2OC)ccc2c1C(C)=CC(C)(C)N2 [Compound 1-3, 6-(4-Benzoyloxy-2-methoxyphenyl)-5-(2-methoxyphenylaminomethyl)-2,2,4-trimethyl-1,2-dihydroquioline]
95 | – | COc1ccccc1NCc1c(-c2ccc(OC(=O)c3ccccc3OC)cc2OC)ccc2c1C(C)=CC(C)(C)N2 [Compound 1-4, 6-[2-Methoxy-4-(2-methoxybenzoyloxy)phenyl]-5-(2-methoxyphenylaminomethyl)-2,2,4-trimethyl-1,2-dihydroquinoline]
93 | – | COc1ccccc1NCc1c(-c2ccc(OC(=O)c3ccccc3C)cc2OC)ccc2c1C(C)=CC(C)(C)N2 [Compound 1-5, 6-[2-Methoxy-4-(2-methylbenzoyloxy)phenyl]-5-(2-methoxyphenylaminomethyl)-2,2,4-trimethyl-1,2-dihydroquinoline]
93 | – | COc1ccccc1NCc1c(-c2ccc(OC(=O)c3ccccc3Cl)cc2OC)ccc2c1C(C)=CC(C)(C)N2 [Compound 1-10, 6-[4-(2-Chlorobenzoyloxy)-2-methoxyphenyl]-5-(2-methoxyphenylaminomethyl)-2,2,4-trimethyl-1,2-dihydroquinoline]
99 | – | COc1ccccc1NCc1c(-c2ccc(OC(=O)c3ccccc3F)cc2OC)ccc2c1C(C)=CC(C)(C)N2 [Compound 1-12, 6-[4-(2-Fluorobenzoyloxy)-2-methoxyphenyl]-5-(2-methoxyphenylaminomethyl)-2,2,4-trimethyl-1,2-dihydroquinoline]
86 | – | COc1ccccc1NCc1c(-c2ccc(OC(=O)c3ccc(F)cc3)cc2OC)ccc2c1C(C)=CC(C)(C)N2 [Compound 1-23, 6-[4-(4-Fluorobenzoyloxy)-2-methoxyphenyl]-5-(2-methoxyphenylaminomethyl)-2,2,4-trimethyl-1,2-dihydroquinoline]
90 | – | COc1ccccc1NCc1c(-c2ccc(OC(=O)c3ccccc3SC)cc2OC)ccc2c1C(C)=CC(C)(C)N2 [Compound 1-26, 6-[2-Methoxy-4-(2-methylthiobenzoyloxy)phenyl]-5-(2-methoxyphenylaminomethyl)-2,2,4-trimethyl-1,2-dihydroquinoline]
